Experimental data as given in ChEMBL document CHEMBL1156206, “Pyrazolone-fused combretastatins and their precursors: synthesis, cytotoxicity, antitubulin activity and molecular modeling studies” (Bioorg Med Chem, 2010).
Blank lines part the entries; values can stand above or below the compound they belong to. Active and inactive are the calls of the source. The rule behind the calls is not given here.

Legend:
[1] = Inhibition of tubulin polymerization at 20 uM relative to control
HeLa [2] = assay: Cytotoxicity against human HeLa cells after 72 hrs by MTT assay; type: functional, cell-based
[3] = Inhibition of tubulin polymerization
HEp-2 [4] = assay: Cytotoxicity against human Hep2 cells after 72 hrs by MTT assay; type: functional, cell-based; conditions: HEp-2, 72 h
HEp-2 [5] = assay: Cytotoxicity against human cisplatin-resistant Hep2 cells after 72 hrs by MTT assay; type: functional, cell-based; conditions: HEp-2, 72 h
RT-112 = assay: Cytotoxicity against human RT112 cells after 72 hrs by MTT assay; type: functional, cell-based; conditions: RT-112, 72 h
T-24 = assay: Cytotoxicity against human T24 cells after 72 hrs by MTT assay; type: functional, cell-based; conditions: T-24, 72 h
MIA PaCa-2 = assay: Cytotoxicity against human MIAPaCa2 cells after 72 hrs by MTT assay; type: functional, cell-based; conditions: MIA PaCa-2, 72 h
SW-620 = assay: Cytotoxicity against human SW620 cells after 72 hrs by MTT assay; type: functional, cell-based; conditions: SW-620, 72 h
HeLa [6] = assay: Cell cycle arrest in human HeLa cells assessed as accumulation of cells in G2/M phase at 2.2 uM after 24 hrs using propidium iodide by flow cytometry; type: functional
HeLa [7] = assay: Induction of microtubule network disruption in human HeLa cells at 0.02 uM after 24 hrs by immunofluorescence assay; type: functional, cell-based
HeLa [8] = assay: Cell cycle arrest in human HeLa cells assessed as accumulation of cells in G0/1 phase at 0.02 uM after 24 hrs using propidium iodide by flow cytometry; type: functional
HeLa [9] = assay: Cell cycle arrest in human HeLa cells assessed as accumulation of cells in G0/1 phase at 0.2 uM after 24 hrs using propidium iodide by flow cytometry; type: functional
HeLa [10] = assay: Cell cycle arrest in human HeLa cells assessed as accumulation of cells in G0/1 phase at 2.2 uM after 24 hrs using propidium iodide by flow cytometry; type: functional
HeLa [11] = assay: Cell cycle arrest in human HeLa cells assessed as accumulation of cells in S phase at 0.02 uM after 24 hrs using propidium iodide by flow cytometry; type: functional
HeLa [12] = assay: Cell cycle arrest in human HeLa cells assessed as accumulation of cells in S phase at 0.2 uM after 24 hrs using propidium iodide by flow cytometry; type: functional
HeLa [13] = assay: Cell cycle arrest in human HeLa cells assessed as accumulation of cells in S phase at 2.2 uM after 24 hrs using propidium iodide by flow cytometry; type: functional
HeLa [14] = assay: Cell cycle arrest in human HeLa cells assessed as accumulation of cells in G2/M phase at 0.02 uM after 24 hrs using propidium iodide by flow cytometry; type: functional
HeLa [15] = assay: Cell cycle arrest in human HeLa cells assessed as accumulation of cells in G2/M phase at 0.2 uM after 24 hrs using propidium iodide by flow cytometry; type: functional
HeLa [16] = assay: Induction of apoptosis in human HeLa cells assessed as cells containing hypodiploid DNA at 0.02 uM after 24 hrs by flow cytometry; type: functional
HeLa [17] = assay: Induction of apoptosis in human HeLa cells assessed as cells containing hypodiploid DNA at 0.2 uM after 24 hrs by flow cytometry; type: functional
HeLa [18] = assay: Induction of apoptosis in human HeLa cells assessed as cells containing hypodiploid DNA at 2.2 uM after 24 hrs by flow cytometry; type: functional
HeLa [19] = assay: Induction of microtubule network disruption in human HeLa cells at 0.2 uM after 24 hrs by immunofluorescence assay; type: functional, cell-based
HeLa [20] = assay: Induction of microtubule network disruption in human HeLa cells at 2.2 uM after 24 hrs by immunofluorescence assay; type: functional, cell-based
[21] = Homo sapiens, HeLa, 72 h, read-out: IC50

Structure (SMILES): COC(=O)NNC(=O)/C(=C/c1cccc(F)c1)c1cc(OC)c(OC)c(OC)c1
- inhibition [1]: 10%
- IC50 (HeLa [2]; [21]): > 50000 nM

Structure (SMILES): COC(=O)n1[nH]c(=O)c(-c2cc(OC)c(OC)c(OC)c2)c1-c1ccc2ccccc2c1
- inhibition [1]: 3%
- IC50 (HeLa [2]; [21]): 523 nM

Structure (SMILES): COC(=O)n1[nH]c(=O)c(-c2cc(OC)c(OC)c(OC)c2)c1-c1cccc2ccccc12
- inhibition [1]: 7%
- IC50 (HeLa [2]; [21]): > 50000 nM

Structure (SMILES): COC(=O)NNC(=O)/C(=C/c1cc(OC)c(OC)cc1OC)c1ccc(OC)c(OC)c1
- inhibition [1]: 0%
- IC50 (HeLa [2]; hela): Not Active

Structure (SMILES): COC(=O)NNC(=O)/C(=C/c1cc(OC)c(OC)c(OC)c1)c1ccc(OC)c(OC)c1
- inhibition [1]: 0%
- IC50 (HeLa [2]; [21]): > 50000 nM

Structure (SMILES): COC(=O)NNC(=O)/C(=C/c1ccc(OC)cc1)c1cc(OC)c(OC)c(OC)c1
- inhibition [1]: 26%
- IC50 (HeLa [2]; [21]): 1310 nM

Structure (SMILES): COc1ccc(/C=C\c2cc(OC)c(OC)c(OC)c2)cc1O [COMBRETASTATIN A4]
- inhibition [1]: 89%
- IC50 (HeLa [2]; [21]): 2 nM
- IC50 (HEp-2 [4]): 5.5 nM
- IC50 (HEp-2 [5]): 5.2 nM
- IC50 (RT-112): 21.6 nM
- IC50 (T-24): 8.7 nM
- IC50 (MIA PaCa-2): 7.2 nM
- IC50 (SW-620): 23 nM
- IC50 [3]: 1700 nM
- Activity (HeLa [6]): 91.1%
- Activity (HeLa [7]): Active

Structure (SMILES): COC(=O)NNC(=O)/C(=C/c1ccc2ccccc2c1)c1cc(OC)c(OC)c(OC)c1
- inhibition [1]: 97%
- IC50 (HeLa [2]; [21]): 48 nM
- IC50 (HEp-2 [4]): 54 nM
- IC50 (HEp-2 [5]): 51 nM
- IC50 (RT-112): 196 nM
- IC50 (T-24): 185 nM
- IC50 (MIA PaCa-2): 127 nM
- IC50 (SW-620): 74.3 nM
- IC50 [3]: 2700 nM
- Activity (HeLa [8]): 60.2%
- Activity (HeLa [9]): 2.7%
- Activity (HeLa [10]): 1.2%
- Activity (HeLa [11]): 28.3%
- Activity (HeLa [12]): 10.8%
- Activity (HeLa [13]): 7.9%
- Activity (HeLa [14]): 11.5%
- Activity (HeLa [15]): 86.6%
- Activity (HeLa [6]): 90.5%
- Activity (HeLa [16]): 6.9%
- Activity (HeLa [17]): 21.1%
- Activity (HeLa [18]): 21.4%
- Activity (HeLa [7]): inactive
- Activity (HeLa [19]): Active
- Activity (HeLa [20]): Active

Structure (SMILES): COC(=O)n1[nH]c(=O)c(-c2cc(OC)c(OC)c(OC)c2)c1-c1ccc(OC)cc1
- inhibition [1]: 0%
- IC50 (HeLa [2]; [21]): 959 nM

Structure (SMILES): COC(=O)n1[nH]c(=O)c(-c2ccc(OC)c(OC)c2)c1-c1cc(OC)c(OC)cc1OC
- inhibition [1]: 2%
- IC50 (HeLa [2]; hela): Not Active

Structure (SMILES): COC(=O)NNC(=O)/C(=C/c1ccc(OC)c(OC(C)=O)c1)c1cc(OC)c(OC)c(OC)c1
- inhibition [1]: 25%
- IC50 (HeLa [2]; [21]): 498 nM

Structure (SMILES): COC(=O)NNC(=O)/C(=C/c1cccc2ccccc12)c1cc(OC)c(OC)c(OC)c1
- inhibition [1]: 55%
- IC50 (HeLa [2]; [21]): 1300 nM

Structure (SMILES): COC(=O)n1[nH]c(=O)c(-c2cc(OC)c(OC)c(OC)c2)c1-c1cccc(F)c1
- inhibition [1]: 1%
- IC50 (HeLa [2]; hela): Not Active

Structure (SMILES): COC(=O)NNC(=O)/C(=C/c1ccc(OC)c(OC)c1)c1cc(OC)c(OC)c(OC)c1
- inhibition [1]: 0%
- IC50 (HeLa [2]; [21]): > 50000 nM

Structure (SMILES): COC(=O)NNC(=O)/C(=C/c1ccc(OC)c(F)c1)c1cc(OC)c(OC)c(OC)c1
- inhibition [1]: 66%
- IC50 (HeLa [2]; [21]): 667 nM

Now from value to compound, other results behind:

- inhibition [1]: 0%
Structure (SMILES): COc1cc(-c2c(-c3cccc(F)c3)[nH][nH]c2=O)cc(OC)c1OC
- IC50 (HeLa [2]; [21]): > 50000 nM

- inhibition [1]: 98%
- IC50 [3]: 1900 nM
Structure (SMILES): COc1cc(-c2c(-c3ccc4ccccc4c3)[nH][nH]c2=O)cc(OC)c1OC
- IC50 (HeLa [2]; [21]): 114 nM

- inhibition [1]: 100%
- IC50 [3]: 2600 nM
Structure (SMILES): COc1ccc(-c2[nH][nH]c(=O)c2-c2cc(OC)c(OC)c(OC)c2)cc1
- IC50 (HeLa [2]; [21]): 152 nM
- IC50 (HEp-2 [4]): 529 nM
- IC50 (HEp-2 [5]): 615 nM
- IC50 (RT-112): 1890 nM
- IC50 (T-24): 1160 nM
- IC50 (MIA PaCa-2): 575 nM
- IC50 (SW-620): 455 nM

- inhibition [1]: 0%
Structure (SMILES): COc1ccc(-c2c(-c3cc(OC)c(OC)cc3OC)[nH][nH]c2=O)cc1OC
- IC50 (HeLa [2]; [21]): > 50000 nM

- inhibition [1]: 100%
Structure (SMILES): COc1ccc(-c2[nH][nH]c(=O)c2-c2cc(OC)c(OC)c(OC)c2)cc1F
- IC50 (HeLa [2]; [21]): 158 nM
- IC50 (HEp-2 [4]): 1180 nM
- IC50 (HEp-2 [5]): 684 nM
- IC50 (RT-112): 3320 nM
- IC50 (T-24): 1150 nM
- IC50 (MIA PaCa-2): 556 nM
- IC50 (SW-620): 487 nM

- inhibition [1]: 99%
- IC50 [3]: 1700 nM
Structure (SMILES): COc1ccc(-c2[nH][nH]c(=O)c2-c2cc(OC)c(OC)c(OC)c2)cc1O
- IC50 (HeLa [2]; [21]): 176 nM
- IC50 (HEp-2 [4]): 1140 nM
- IC50 (HEp-2 [5]): 709 nM
- IC50 (RT-112): 2080 nM
- IC50 (T-24): 619 nM
- IC50 (MIA PaCa-2): 462 nM
- IC50 (SW-620): 543 nM

- inhibition [1]: 0%
Structure (SMILES): COc1cc(-c2c(-c3cccc4ccccc34)[nH][nH]c2=O)cc(OC)c1OC
- IC50 (HeLa [2]; [21]): > 50000 nM

- inhibition [1]: 0%
Structure (SMILES): COC(=O)n1[nH]c(=O)c(-c2ccc(OC)c(OC)c2)c1-c1cc(OC)c(OC)c(OC)c1
- IC50 (HeLa [2]; hela): Not Active

- inhibition [1]: 3%
Structure (SMILES): COC(=O)n1[nH]c(=O)c(-c2cc(OC)c(OC)c(OC)c2)c1-c1ccc(OC)c(OC)c1
- IC50 (HeLa [2]; [21]): 36300 nM

- inhibition [1]: 9%
Structure (SMILES): COC(=O)n1[nH]c(=O)c(-c2cc(OC)c(OC)c(OC)c2)c1-c1ccc(OC)c(F)c1
- IC50 (HeLa [2]; [21]): 1720 nM

- inhibition [1]: 4%
Structure (SMILES): COc1ccc(-c2c(-c3cc(OC)c(OC)c(OC)c3)[nH][nH]c2=O)cc1OC
- IC50 (HeLa [2]; [21]): > 50000 nM

- inhibition [1]: 0%
Structure (SMILES): COC(=O)n1[nH]c(=O)c(-c2cc(OC)c(OC)c(OC)c2)c1-c1ccc(OC)c(OC(C)=O)c1
- IC50 (HeLa [2]; [21]): 337 nM

- inhibition [1]: 31%
Structure (SMILES): COc1ccc(-c2[nH][nH]c(=O)c2-c2cc(OC)c(OC)c(OC)c2)cc1OC
- IC50 (HeLa [2]; [21]): 5270 nM
